Experimental findings from publication PMC2794843, “Differential regulation of muscarinic M1 receptors by orthosteric and allosteric ligands” (BMC Pharmacology, 2009) are described below.

Experiment [1] concerns the target T1, human muscarinic M1 receptor (hM1) (Homo sapiens, UniProt P11229).
T1 construct: gene CHRM1; full-length hM1
T1 sequence (P11229 1-460): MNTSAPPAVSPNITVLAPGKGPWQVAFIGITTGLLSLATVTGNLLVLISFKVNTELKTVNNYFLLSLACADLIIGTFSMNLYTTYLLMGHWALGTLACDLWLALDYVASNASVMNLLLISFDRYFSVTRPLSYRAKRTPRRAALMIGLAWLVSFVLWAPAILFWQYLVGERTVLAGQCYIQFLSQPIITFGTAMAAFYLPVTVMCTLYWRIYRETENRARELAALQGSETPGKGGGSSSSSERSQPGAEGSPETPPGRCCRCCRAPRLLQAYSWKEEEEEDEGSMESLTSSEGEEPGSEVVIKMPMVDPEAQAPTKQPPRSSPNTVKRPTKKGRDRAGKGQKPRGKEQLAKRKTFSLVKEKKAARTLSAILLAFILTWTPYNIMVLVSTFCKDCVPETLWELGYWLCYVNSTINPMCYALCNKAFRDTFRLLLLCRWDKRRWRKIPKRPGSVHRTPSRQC
Briefly: PI hydrolysis, CHO-M1 cells. It counts as cell-based. The conditions noted are these: partial agonist; 60 min, 37°C, 10 mM LiCl; allosteric component. An excerpt:
PI hydrolysis, CHO-M1 cells on human muscarinic M1 receptor (hM1)

The target in experiment [2] is T1, human muscarinic M1 receptor (hM1). Briefly: R-SAT, transiently transfected NIH-3T3 cells. It counts as cell-based. The conditions noted are these: for pEC50: agonist. An excerpt: R-SAT, transiently transfected NIH-3T3 cells on human muscarinic M1 receptor (hM1)

Turning to `Clc1ccc2c(c1)N=C(N1CCNCC1)c1ccccc1N2` [NDMC], the “PI Hydrolysis / pEC50” value in experiment [1] is 7.1 ± 0.4. As for `CCCCC1CCN(CCCN2C(=O)COc3cc(F)ccc32)CC1` [AC-260977, (R)-4-[3-(4-butylpiperidin-1-yl)propyl]-7-fluoro-2H-benzo[b][1, 4]oxazin-3-one], the negative logarithm of the EC50 (pEC50) in experiment [2] was 7.7 ± 0.1. The molecule `O=C1COc2cc(F)ccc2N1CCCN1CCC(OCC2CC2)CC1` [AC-262469, 4-[3-(4-cyclopropylmethyloxypiperidin-1-yl)propyl]-7-fluoro-2H-benzo[b][1, 4]oxazin-3-one] came in with a pEC50 in experiment [2] of 7.2 ± 0. As for `CCCCC1CCN(CCCN2C(=O)COc3cc(Cl)ccc32)CC1` [AC-260515, 4-[3-(4-butyl-piperidin-1-yl)-propyl]-7-chloro-2H-benzo[b][1, 4]oxazin-3-one], it took 251 nM to reach a half-maximal effect in experiment [2] (EC50).
